Results published in article PMC11392244, “Characterization of a unique catechol-O-methyltransferase as a molecular drug target in parasitic filarial nematodes” (PLOS Neglected Tropical Diseases, 2024).
Where “and” joins values, the source holds several entries; their conditions need not be identical. Equal values may be shown once. Read-outs that look alike come from different tables or passages of the source.

Key:
DiMT protein [1] = test: DiMT enzyme activity, kinetics and substrate specificity (MTase-Glo methyltransferase assay); format: biochemical, Dirofilaria immitis; conditions: for DiMT catalytic activity for methylation of the substrate: SAM as co-substrate; for Vmax / Km: Michaelis-Menten fit; for Km: other substrate fixed
DiMT protein [2] = format: biochemical, Dirofilaria immitis
D. immitis microfilariae = test: In vitro efficacy against live D. immitis microfilariae (motility, completely immotile %); format: cell-based, Dirofilaria immitis; conditions: for Completely Immotile Microfilariae (%): single replicate
[3] = DiMT 90 ng/μL, SAM 40 μM, substrate 300 μM

OCCS [2-Mercaptoethanol]
Mean RLU (DiMT protein [1]; [3]): -2592.7 RLU
DiMT catalytic activity for methylation of the substrate (DiMT protein [1]): did not depict catalytic activity

NCCc1ccc(O)c(O)c1 [Dopamine]
Kcat (S^-1) (DiMT protein [1]; DiMT 90 ng/μL): 241.28 S^-1
Mean RLU (DiMT protein [1]; [3]): 5806.3 RLU
Vmax (DiMT protein [1]; DiMT 90 ng/μL): 1549.0 nmol/µg/min and 1549.0 ± 21.4 nmol/µg/min
Km (DiMT protein [1]; DiMT 90 ng/μL): 106 ± 6.2 µM
DiMT catalytic activity for methylation of the substrate (DiMT protein [1]): readily catalyzed the methylation
Mean RLU (DiMT protein [1]; dopamine 50 uM, SAM (30 µM)): 114.3 RLU
RLU (single experiments) (DiMT protein [1]; dopamine 50 uM, SAM (30 µM)): 106.0 RLU and 141.0 RLU and 96.0 RLU
Mean RLU (DiMT protein [1]; dopamine 100 uM, SAM (30 µM)): 391.3 RLU
Mean RLU (DiMT protein [1]; dopamine 200 uM, SAM (30 µM)): 1186.3 RLU
RLU (single experiments) (DiMT protein [1]; dopamine 200 uM, SAM (30 µM)): 958.0 RLU and 965.0 RLU and 1636.0 RLU
Mean RLU (DiMT protein [1]; dopamine 300 uM, SAM (30 µM)): 2161.3 RLU
RLU (single experiments) (DiMT protein [1]; dopamine 300 uM, SAM (30 µM)): 1950.0 RLU and 1857.0 RLU and 2677.0 RLU
Mean RLU (DiMT protein [1]; dopamine 400 uM, SAM (30 µM)): 2830.0 RLU
RLU (single experiments) (DiMT protein [1]; dopamine 400 uM, SAM (30 µM)): 2877.0 RLU and 2606.0 RLU and 3007.0 RLU
Mean RLU (DiMT protein [1]; dopamine 500 uM, SAM (30 µM)): 3483.0 RLU
RLU (single experiments) (DiMT protein [1]; dopamine 500 uM, SAM (30 µM)): 2900.0 RLU and 4023.0 RLU and 3526.0 RLU

NCCc1c[nH]cn1 [Histamine]
Mean RLU (DiMT protein [1]; [3]): 167.3 RLU
DiMT catalytic activity for methylation of the substrate (DiMT protein [1]): did not depict catalytic activity

CO[C@H]1/C=C/O[C@@]2(C)Oc3c(C)c(O)c4c(O)c(cc(O)c4c3C2=O)NC(=O)/C(C)=C\C=C\[C@H](C)[C@H](O)[C@@H](C)[C@@H](O)[C@@H](C)[C@H](OC(C)=O)[C@@H]1C [NSC133100]
Mean Percent Inhibition (DiMT protein [2]; 100 µM): 24.8% and 27.0% and 28.5%
Mean Percent Inhibition, Average (DiMT protein [2]; 100 µM): 26.8%
Mean Percent Inhibition (DiMT protein [2]; 200 µM): 32.0% and 34.7% and 35.8%
Mean Percent Inhibition, Average (DiMT protein [2]; 200 µM): 34.1%
Mean Percent Inhibition (DiMT protein [2]; 300 µM): 33.9% and 41.0% and 42.1%
Mean Percent Inhibition, Average (DiMT protein [2]; 300 µM): 39.0%
Mean Percent Inhibition (DiMT protein [2]; 400 µM): 40.4% and 46.0%
Mean Percent Inhibition, Average (DiMT protein [2]; 400 µM): 44.1%
Mean Percent Inhibition (DiMT protein [2]; 500 µM): 51.5% and 54.8% and 55.7%
Mean Percent Inhibition, Average (DiMT protein [2]; 500 µM): 54.0%
IC50 (DiMT protein [2]; read-out: IC 50 (μM ± SEM)): 496.9 ± 2.7 µM
Mean completely Immotile (%) (D. immitis microfilariae; 15 µM, 0 h): 0%
Completely Immotile Microfilariae (%) (D. immitis microfilariae; 15 µM, 0 h): 0%
Mean completely Immotile (%) (D. immitis microfilariae; 15 µM, 24 h): 1%
Completely Immotile Microfilariae (%) (D. immitis microfilariae; 15 µM, 24 h): 0% and 1% and 2%
Mean completely Immotile (%) (D. immitis microfilariae; 15 µM, 48 h): 2.67%
Completely Immotile Microfilariae (%) (D. immitis microfilariae; 15 µM, 48 h): 1% and 3% and 4%
Mean completely Immotile (%) (D. immitis microfilariae; 15 µM, 72 h): 4.67%
Completely Immotile Microfilariae (%) (D. immitis microfilariae; 15 µM, 72 h): 3% and 5% and 6%
Mean completely Immotile (%) (D. immitis microfilariae; 15 µM, 96 h): 6.67%
Completely Immotile Microfilariae (%) (D. immitis microfilariae; 15 µM, 96 h): 5% and 7% and 8%
Mean completely Immotile (%) (D. immitis microfilariae; 15 µM, 120 h): 9.67%
Completely Immotile Microfilariae (%) (D. immitis microfilariae; 15 µM, 120 h): 7% and 10% and 12%
Mean completely Immotile (%) (D. immitis microfilariae; 25 µM, 0 h): 0%
Completely Immotile Microfilariae (%) (D. immitis microfilariae; 25 µM, 0 h): 0%
Mean completely Immotile (%) (D. immitis microfilariae; 25 µM, 24 h): 3%
Completely Immotile Microfilariae (%) (D. immitis microfilariae; 25 µM, 24 h): 2% and 3% and 4%
Mean completely Immotile (%) (D. immitis microfilariae; 25 µM, 48 h): 4.67%
Completely Immotile Microfilariae (%) (D. immitis microfilariae; 25 µM, 48 h): 3% and 5% and 6%
Mean completely Immotile (%) (D. immitis microfilariae; 25 µM, 72 h): 6.67%
Completely Immotile Microfilariae (%) (D. immitis microfilariae; 25 µM, 72 h): 5% and 7% and 8%
Mean completely Immotile (%) (D. immitis microfilariae; 25 µM, 96 h): 9.33%
Completely Immotile Microfilariae (%) (D. immitis microfilariae; 25 µM, 96 h): 7% and 10% and 11%
Mean completely Immotile (%) (D. immitis microfilariae; 25 µM, 120 h): 13.67%
Completely Immotile Microfilariae (%) (D. immitis microfilariae; 25 µM, 120 h): 10% and 16% and 15%
Mean completely Immotile (%) (D. immitis microfilariae; 50 µM, 0 h): 0%
Completely Immotile Microfilariae (%) (D. immitis microfilariae; 50 µM, 0 h): 0%
Mean completely Immotile (%) (D. immitis microfilariae; 50 µM, 24 h): 5%
Completely Immotile Microfilariae (%) (D. immitis microfilariae; 50 µM, 24 h): 4% and 5% and 6%
Mean completely Immotile (%) (D. immitis microfilariae; 50 µM, 48 h): 8%
Completely Immotile Microfilariae (%) (D. immitis microfilariae; 50 µM, 48 h): 7% and 8% and 9%
Mean completely Immotile (%) (D. immitis microfilariae; 50 µM, 72 h): 10.67%
Completely Immotile Microfilariae (%) (D. immitis microfilariae; 50 µM, 72 h): 9% and 11% and 12%
Mean completely Immotile (%) (D. immitis microfilariae; 50 µM, 96 h): 12.67%
Completely Immotile Microfilariae (%) (D. immitis microfilariae; 50 µM, 96 h): 11% and 13% and 14%
Mean completely Immotile (%) (D. immitis microfilariae; 50 µM, 120 h): 17%
Completely Immotile Microfilariae (%) (D. immitis microfilariae; 50 µM, 120 h): 14% and 19% and 18%
Mean completely Immotile (%) (D. immitis microfilariae; 75 µM, 0 h): 0%
Completely Immotile Microfilariae (%) (D. immitis microfilariae; 75 µM, 0 h): 0%
Mean completely Immotile (%) (D. immitis microfilariae; 75 µM, 24 h): 6.33%
Completely Immotile Microfilariae (%) (D. immitis microfilariae; 75 µM, 24 h): 5% and 6% and 8%
Mean completely Immotile (%) (D. immitis microfilariae; 75 µM, 48 h): 10%
Completely Immotile Microfilariae (%) (D. immitis microfilariae; 75 µM, 48 h): 9% and 10% and 11%
Mean completely Immotile (%) (D. immitis microfilariae; 75 µM, 72 h): 13%
Completely Immotile Microfilariae (%) (D. immitis microfilariae; 75 µM, 72 h): 12% and 13% and 14%
Mean completely Immotile (%) (D. immitis microfilariae; 75 µM, 96 h): 15.67%
Completely Immotile Microfilariae (%) (D. immitis microfilariae; 75 µM, 96 h): 14% and 16% and 17%
Mean completely Immotile (%) (D. immitis microfilariae; 75 µM, 120 h): 20.67%
Completely Immotile Microfilariae (%) (D. immitis microfilariae; 75 µM, 120 h): 17% and 23% and 22%
effect on microfilariae (D. immitis microfilariae; up to 120 h of culture): insignificant effect

NCC(O)c1ccc(O)cc1 (stereo not shown) [Octopamine]
fold lower DiMT activity than that of dopamine (DiMT protein [1]): 3 fold
Mean RLU (DiMT protein [1]; [3]): 1996.7 RLU
DiMT catalytic activity for methylation of the substrate (DiMT protein [1]): modest activity

NCCOP(=O)(O)O [Phosphoethanolamine]
Mean RLU (DiMT protein [1]; [3]): -1783.7 RLU
DiMT catalytic activity for methylation of the substrate (DiMT protein [1]): did not depict catalytic activity

C[S+](CC[C@H](N)C(=O)[O-])C[C@H]1O[C@@H](n2cnc3c(N)ncnc32)[C@H](O)[C@@H]1O (stereo partly drawn) [SAM, S-adenosyl-L-methionine]
Kcat (S^-1) (DiMT protein [1]; DiMT 90 ng/μL): 42.94 S^-1
Vmax (DiMT protein [1]; DiMT 90 ng/μL): 275.7 ± 3.9 nmol/µg/min
Km (DiMT protein [1]; DiMT 90 ng/μL): 104 ± 2.7 µM
Mean RLU (DiMT protein [1]; SAM 10 µM, dopamine 360 µM): 756.5 RLU
RLU (single experiments) (DiMT protein [1]; SAM 10 µM, dopamine 360 µM): 914.5 RLU and 723.5 RLU and 631.5 RLU
Mean RLU (DiMT protein [1]; SAM 20 µM, dopamine 360 µM): 2042.5 RLU
RLU (single experiments) (DiMT protein [1]; SAM 20 µM, dopamine 360 µM): 2199.5 RLU and 2145.5 RLU and 1782.5 RLU
Mean RLU (DiMT protein [1]; SAM 30 µM, dopamine 360 µM): 3090.5 RLU
RLU (single experiments) (DiMT protein [1]; SAM 30 µM, dopamine 360 µM): 2251.5 RLU and 2688.5 RLU and 4331.5 RLU
Mean RLU (DiMT protein [1]; SAM 40 µM, dopamine 360 µM): 4397.8 RLU
RLU (single experiments) (DiMT protein [1]; SAM 40 µM, dopamine 360 µM): 4459.5 RLU and 4406.5 RLU and 4327.5 RLU
Mean RLU (DiMT protein [1]; SAM 50 µM, dopamine 360 µM): 5027.5 RLU
RLU (single experiments) (DiMT protein [1]; SAM 50 µM, dopamine 360 µM): 4688.5 RLU and 5346.5 RLU and 5047.5 RLU
Mean RLU (DiMT protein [1]; SAM 60 µM, dopamine 360 µM): 4815.8 RLU
RLU (single experiments) (DiMT protein [1]; SAM 60 µM, dopamine 360 µM): 4881.5 RLU and 5382.5 RLU and 4183.5 RLU

NCCc1ccc(O)cc1 [Tyramine]
fold lower DiMT activity than that of dopamine (DiMT protein [1]): 6 fold
Mean RLU (DiMT protein [1]; [3]): 1001.7 RLU
DiMT catalytic activity for methylation of the substrate (DiMT protein [1]): modest activity
